Values quoted from earlier work in publication PMC3580849 (Bioorganic & medicinal chemistry letters, 2011).

Test system: Human M1 fibroblasts
Settings: positive control, previously determined

H-KDLLEQKRAAVDTYC-NH2 [65–79*0401, H-Lys-Asp-Leu-Leu-Glu-Gln-Lys-Arg-Ala-Ala-Val-Asp-Thr-Tyr-Cys-NH2]
optimal concentration for activation of NO production: 50 µM
